Data as given in patent publication US9777123B2, “Sulfated beta-O4 low molecular weight lignins” (VIRGINIA COMMONWEALTH UNIVERSITY, priority 2013, dated 2017).

Target: T1, SbO4L-thrombin complex (Homo sapiens, UniProt P00734)
T1 construct: purchased Haematologic Technologies, Sigma-Aldrich or Elastin Products Company (not assigned per protease)
Assay: Protamine-mediated reversal of SbO4L inhibition of thrombin
Assay type: biochemical
Description: FIG. 8. Protamine-mediated reversal of SbO4L inhibition of thrombin. Recovery of thrombin activity at varying levels of protamine following 50% inhibition by SbO4L was measured through the Spectrozyme TH hydrolysis assay at pH 7.4. Solid line represents non-linear fit of the data by a logistic function similar to equation 1 to obtain the RC50, the concentration of protamine necessary to recover 50% thrombin activity.
A major advantage of heparin therapy is its amenability to protamine-based reversal. It is also one of the reasons why fondaparinux continues to suffer because its iatrogenic bleeding is difficult to reverse rapidly. To test whether SbO4L inhibition of thrombin can be reversed, we studied the recovery of thrombin activity following successive introduction of protamine. […] The protamine-mediated recovery profile essentially mirrors the SbO4L-induced inhibition profile. More importantly, the level of recovery is quantitative at high enough protamine concentrations. Further, the recovery was instantaneous as no extended incubation was necessary to observe reversal. The concentration of protamine necessary to recover 50% thrombin activity, i.e., RC50, could be calculated using an equation similar to the logistic equation 1 used for inhibition studies and found to be ˜0.1 μg/ml, […] for SbO4L inhibition of thrombin.

RC50 relative to IC50 (fold higher): 5 fold
RC50, concentration of protamine necessary to recover 50% thrombin activity (after 50% inhibition by SbO4L, pH 7.4, 37° C.): ~0.1 µg/mL
thrombin activity restored (chromogenic test systems): 100%
effect of protamine alone on thrombin activity (controls without SbO4L): did not affect the activity of thrombin
Substance: protamine
